How the values were obtained:
[1] = system: Raji (Burkitt's) lymphoma cells; test: MTT assay for 4-day viability of Raji (Burkitt's) lymphoma cells; format: cell-based; conditions: Homo sapiens, 96 h, Raji cells (highly express MCT1), estimated values, read-out: approximate potency (EC50 nM)
Description: Specific Examples of compounds of the invention, with estimated EC50 values determined using an MTT assay for 4-day viability of Raji (Burkitt's) lymphoma cells, a cell line known to highly express MCT1 and to be sensitive to small molecule MCT inhibitors,^4 are shown in Table 3. Assay protocols follow those described in the literature.^4 Other assays that are not described here but that are standard in the field, such as an assay for competitive inhibition of transport of radiolabeled lactic acid, an MCT substrate, may also be useful in establishing mechanism of action of these compounds.

[2] = system: T47D tumor cells; test: Mouse xenograft experiment using T47D tumor cells; format: in vivo, mice; conditions: 30 mg/kg daily
Procedure: (§1) The in vivo effects of a few selected agents have been evaluated in mouse xenograft models and found to be effective. Protocols follow those described in the literature.^4
(§2) Mice were transplanted with cultured tumor cells and after an incubation period (typically 8-12 days), mice were left untreated or were treated daily with a 30 mg/kg dose of the test compound. Tumor volumes were measured with calipers over […] of treatment. Tumors were excised and weighed at the end of treatment. In some experiments the mice were co-treated daily with a 30 mg/kg dose of the test compound and 5 mg/kg of metformin.

[3] = system: Raji Burkitt lymphoma cells; test: Xenograft of tumors derived from Raji Burkitt lymphoma cells in nude mice; format: in vivo; conditions: versus vehicle
Procedure: as §1, §2
In a separate experiment, this same compound was used in a study using implanted tumors derived from Raji Burkitt lymphoma cells, implanted into nude mice and treated as before with vehicle, with SR-11431, or with SR-11431 plus metformin.

CC(C)Cn1c(=O)n(C)c(=O)c2nc(CCCCCO)c(COc3cccc4cnccc34)nc21 [Example 3, 6-(5-hydroxypentyl)-1-isobutyl-7-((isoquinolin-5-yloxy)methyl)-3-methylpteridine-2,4(1H,3H)-dione]
EC50 [1]: < 50 nM
tumor volume ([2]; versus vehicle): significant reduction of tumor volume
final tumor mass ([2]; versus vehicle treated animals, end of treatment): reduction in final tumor mass
tumor volume over time ([3]; 30 mg/kg daily (co-treatment: plus 5 mg/kg metformin), 30-day time course): Reduction of tumor volume over time
final tumor weight ([3]; end of treatment (day 32)): not significantly changed

— patent US10874675B2, “Pteridine dione monocarboxylate transporter inhibitors” (The Scripps Research Institute, priority 2015, dated 2020)
